Reference: US11992492B2, “Composition for preventing or treating cellular senescence-associated diseases, containing homoharringtonine as active ingredient” (RESEARCH COOPERATION FOUNDATION OF YEUNGNAM UNIVERSITY, priority 2018, dated 2024)

Experiments:
[1] = system: human retinal pigmented epithelial cells; experiment: CCK-8 analysis and LDH activity analysis in retinal pigmented epithelial cells; assay type: cell-based; settings: ARPE young and doxorubicin-senescent; FIG. 6D, 6E
Experimental: Young cells (1×10^3 cells/well) or senescent cells (2×10^3 cells/well) were dispensed into a 96-well plate, and cultured overnight in a 37° C., 5% CO2 incubator.
Homoharringtonine, ABT263 and rapamycin were treated at each concentration, and then incubated for 4 days in a 37° C., 5% CO2 incubator. 10 μl of CCK-8 reagent (Dojindo Molecular Technologies Inc., Kumamoto, Japan) was added to each well, and incubated for 2 hours in an incubator. Then, the absorbance was measured at 450 nm using a Microplate reader. The degree of cell survival was expressed as a relative value for the absorbance of the control group treated with only DMSO as 100%.
Cytotoxicity against young and senescent cells was investigated with a lactate dehydrogenase (LDH) activity kit (Dojindo Molecular Technologies Inc.). Young cells (1×10^3 cells/100 μl/well) or senescent cells (2×10^3 cells/100 μl/well) were dispensed into a 96-well plate, and then cultured overnight in a 37° C., 5% CO2 incubator.
Homoharringtonine, ABT263 and rapamycin were treated at each concentration, and then incubated for 4 days in a 37° C., 5% CO2 incubator. […] 50 μl of the LDH reaction stop solution was added, and absorbance was measured at 490 nm using a microplate reader. The level of LDH activity was expressed as a relative value based on the absorbance of the control group treated with only DMSO.

[2] = system: replicative senescent human fibroblasts; experiment: LDH activity analysis (cytotoxicity) in young and replicative senescent human fibroblasts; assay type: cell-based; settings: young vs replicative senescent fibroblasts; FIG. 2C
Experimental: Cytotoxicity against young and senescent cells was investigated with a lactate dehydrogenase (LDH) activity kit (Dojindo Molecular Technologies Inc.). Young cells (1×10^3 cells/100 μl/well) or senescent cells (2×10^3 cells/100 μl/well) were dispensed into a 96-well plate, and then cultured overnight in a 37° C., 5% CO2 incubator. Homoharringtonine, ABT263 and rapamycin were treated at each concentration, and then incubated for 4 days in a 37° C., 5% CO2 incubator. After transferring the cell culture solution to a 1.5 ml tube, it was centrifuged at 4° C. and 12,000 rpm. 100 μl of the supernatant was dispensed into a 96-well plate, and 100 μl of the LDH measurement solution was added to each well, followed by reaction in a CO2 incubator for 30 minutes. 50 μl of the LDH reaction stop solution was added, and absorbance was measured at 490 nm using a microplate reader. The level of LDH activity was expressed as a relative value based on the absorbance of the control group treated with only DMSO.

COC(=O)C[C@](O)(CCCC(C)(C)O)C(=O)O[C@@H]1C(OC)=C[C@]23CCCN2CCc2cc4c(cc2[C@H]13)OCO4 [homoharringtonine, Homoharringtonine]
senescent cell-specific cytotoxicity (CCK-8 analysis and LDH activity analysis) [1]: not induced
LDH activity (cytotoxicity) [2]: increased only in replicative senescent cells compared to young cells
